Assay results as given in US20120058133A1, “INHIBITION OF TRNA SYNTHETASES AND THERAPEUTIC APPLICATIONS THEREOF” (President and Fellows of Harvard College, priority 2009, published 2012).
“Also recorded” adds a separate entry of the source.

Columns and labels:
[1] = tested on: GCN2 phosphorylation / AAR pathway; test: AAR pathway activation in MEFs (GCN2, eIF2a phosphorylation, CHOP); type: cell-based, mouse
Description: FIG. 24. Activation of the AAR in cells by HF/FF occurs through inhibition of proline utilization. FIG. 24A is a gel showing HF-induction of the AAR pathway is reversed by proline. MEFs were treated with the indicated concentration of HF or FF in the presence or absence of 2 mM Proline for 2 hours (left) or treated with 1 μM borrelidin in the presence or absence of 2 mM Threonine for 2 hours (right). Cells were lysed and assessed by anti-pGCN2 or anti-GCN2 Western blot. Data are representative of three separate experiments.
FIG. 24B is a gel showing HF induction of eIF2a phosphorylation and CHOP expression is GCN2 dependent. Wild Type or GCN2−/− MEFs were treated with 50 nM HF in the presence or absence of 2 mM proline. Cells were lysed at 2 hours post-HF addition (peIF2a) or 6 hours post-HF addition (CHOP) and analyzed for phosphoprotein or total protein levels by Western blot.

[2] = tested on: mTOR pathway; test: mTOR pathway signaling in fibroblasts; type: cell-based, mouse; conditions: 100 nM HF
Description: FIG. 25. […] MEFs growing in DME/10% FCS were treated with 100 nM HF or 0.5 μM Rapamycin and analyzed by Western blot for phosphorylation of component of the mTor signaling pathway. Lane 1: 100 nM MAZ1310 1 hr; Lane 2: 100 nM HF 8 hr; Lane 3: 100 nM HF 4 hr; Lane 4: 100 nM HF 2 hr; Lane 5: 100 nM HF 1 hr; Lane 6: 0.5 μM Rapamycin 1 hr.

[3] = type: in vitro ADME; conditions: mouse, 2 h, 20 nM
Description: MEFs were incubated with the indicated concentration of HF in the presence or absence of 2 mM proline for 2 hours and then lysed. Lysates were then tested for HF levels in comparison to a standard curve using known concentrations of HF with an anti-HF antibody based ELISA assay (see Example 9, “Materials and Methods”). Error bars reflect standard deviation of triplicate determinations. Similar results were obtained in three separate experiments.
Polyclonal anti-HF antibody was raised by immunizing rabbits with KLH coupled to an HF derivative (MAZ1356) containing a linker attached to the quinazolinone and terminated by a primary amino group. Crude antibody was affinity purified using MAZ1356 linked to NHS-agarose. For the ELISA assay, MAZ1356 was coupled to 96-well Reacti-bind Plates (Pierce). After binding, plates were blocked with 10% goat serum in PBS/0.2% Tween-20 (PBST). […] Captured antibody was quantitated using TMB based colorimetric detection (Pierce), and a standard curve for HF concentration fitted from the colorimetric data. […] To determine HF concentration in cells, 8 μl of cleared lysate (or control buffer) was incubated with anti-HF antibody in MAZ1356 bound wells, and captured antibody detected and quantitated as described above. HF concentration was then determined by fitting colorimetry results with cell samples to a standard curve of HF concentration. […]

In the case of O=C(CC1NCCCC1O)Cn1cnc2cc(Br)c(Cl)cc2c1=O (racemic) [HF, halofuginone], the “eIF2-alpha phosphorylation and CHOP induction in wild type vs GCN2−/− fibroblasts” value ([1]; 50 nM HF) is reported as “absent in GCN2−/− fibroblasts”, the “reversal of GCN2 phosphorylation by cognate amino acid” value ([1]; 2 mM proline or 2 mM threonine) is reported as “abrogated by the addition of 2 mM proline” and the “GCN2 phosphorylation in fibroblasts” value ([1]; 2 hours, borrelidin 1 μM) is reported as “Stimulation of GCN2 phosphorylation”. For the same compound, the “signaling downstream of mTOR” value [2] was “does not directly inhibit downstream targets of the mTOR pathway; also recorded: did not inhibit signaling downstream of mTOR; also recorded: without concomitant inhibition of mTOR signaling” and the “absolute HF concentration inside cells” value [3] was roughly 800 nM.
